# Patent US11262349B2, “Multiplexed immune cell assays on a micropillar/microwell chip platform” (Cleveland State University, priority 2017, dated 2022)
# Legend:
# CD40 on RAW 264.7 cells = experiment: Surface biomarker expression (CD40) in immune cells on micropillar/microwell chip; assay type: cell-based, mouse; details: 3D alginate/Matrigel, glycopolymers at 1250 μg/mL, LPS at 10 μg/mL, 48 hours, vs growth medium control (FIG. 15A)
# Method: (§1) FIGS. 8, 14, and 15 are discussed in Example 5.
# (§2) The micropillars of a 384-pillar micropillar chip were coated with 0.01% PMA-OD. Then 16.6 mM BaCl2/0.0033% PLL were printed onto the micropillars using a […].
# (§3) An immune-cell suspension was prepared using 0.75% alginate and 0.5 mg/mL Matrigel and then printed onto the coated micropillars.
# (§4) Growth media was then printed into the microwells on a microwell chip using a […].
# (§5) The micropillar chip was then sandwiched with the microwell chip for 30 minutes and incubated for 24 hours with fresh growth media.
# (§6) Next, various glycopolymers at 1250 μg/mL (polyacrylamide, N-glucosyl polymer, N-mannosyl polymer, N-lactosyl polymer, N-α2,3-sialolactosyl polymer, and N-α2,6-sialolactosyl polymer) and LPS at 10 μg/mL [701] were printed into the microwells.
# (§7) The micropillar chip was then sandwiched with the microwell plate containing glycopolymers and LPS [701] for 48 hours. The micropillar chip was then rinsed with TBS [801] for 10 minutes, then incubated with ice-cold methanol and acetone (1:1 ratio) for 10 minutes at room temperature. The micropillar chip was then rinsed with TBS twice for 5 minutes and incubated with blocking buffer (SuperBlock) for 1 hour at room temperature. […]
# CD80 on RAW 264.7 cells = experiment: Surface biomarker expression (CD80) in immune cells on micropillar/microwell chip; assay type: cell-based, mouse; details: 3D alginate/Matrigel, glycopolymers at 1250 μg/mL, LPS at 10 μg/mL, 48 hours, vs growth medium control (FIG. 15B)
# Method: as §1, §2, §3, §4, §5, §6, §7
# [1] = system: Class II MHC on RAW 264.7 cells; experiment: Surface biomarker expression (class II MHC) in immune cells on micropillar/microwell chip; assay type: cell-based, mouse; details: 3D alginate/Matrigel, glycopolymers at 1250 μg/mL, LPS at 10 μg/mL, 48 hours, vs growth medium control (FIG. 15D)
# Method: as §1, §2, §3, §4, §5, §6, §7
# [2] = system: TNF-α production by RAW 264.7 cells; experiment: Cytokine secretion (TNF-α) by immune cells on micropillar/microwell chip, 32-plex mouse cytokine array; assay type: cell-based; details: glycopolymers at 1250 μg/mL, LPS at 10 μg/mL, 24 hours, cell supernatant (FIG. 16A)
# Method: (§8) FIGS. 9 and 16A-D are discussed in this example.
# (§9) The micropillars on a micropillar chip were coated with 0.01% PMA-OD. Then 16.6 mM BaCl2/0.0033% PLL was printed on the micropillars using a microarray spotter.
# (§10) An immune-cell suspension was prepared using RAW 264.7 cells, 0.75% alginate and 0.5 mg/mL Matrigel and then printed onto the coated micropillars. 60 nL spots of the immune-cell suspension were printed onto a micropillar chip with dried PLL-BaCl2 at a density of 3×10^6 cells/mL. After 2 minutes of alginate gelation and 24-hour incubation with a microwell chip containing 950 nL of cell growth media, the micropillar chip containing immune cells was sandwiched with a new microwell chip containing 950 nL of glycopolymers (polyacrylamide, N-glucosyl polymer, N-galactosyl polymer, N-mannosyl polymer, N-GlcNAc polymer, N-lactosyl polymer, N-α2,3 sialolactosyl polymer, and Nα2,6-sialolactosyl polymer) at 1250 μg/mL and LPS at 10 μg/mL, and incubated at 37° C. and 5% CO2 for 24 hours.
# (§11) Separately, immune cells were cultured in 96-well plates in growth media and 10 μg/mL LPS for 24 hours as negative and positive controls for 2D monolayer culture.
# (§12) The cell supernatants for all conditions were collected from the microwell chip and the 96-well plate, centrifuged, and analyzed for 32-plex mouse cytokine array measurements. […]
# [3] = system: IL-6 production by RAW 264.7 cells; experiment: Cytokine secretion (IL-6) by immune cells on micropillar/microwell chip, 32-plex mouse cytokine array; assay type: cell-based; details: glycopolymers at 1250 μg/mL, LPS at 10 μg/mL, 24 hours, cell supernatant (FIG. 16B)
# Method: as §8, §9, §10, §11, §12
# [4] = system: IL-10 production by RAW 264.7 cells; experiment: Cytokine secretion (IL-10) by immune cells on micropillar/microwell chip, 32-plex mouse cytokine array; assay type: cell-based; details: glycopolymers at 1250 μg/mL, LPS at 10 μg/mL, 24 hours, cell supernatant (FIG. 16D)
# Method: as §8, §9, §10, §11, §12
substance,measurement,setting,value
lipopolysaccharide [LPS],expression level of CD40 marker,CD40 on RAW 264.7 cells,significantly enhanced
same,expression level of CD80 marker,CD80 on RAW 264.7 cells,enhanced
same,expression level of class II MHC marker,[1],significantly enhanced
same,TNF-α production,[2],significantly stimulated
same,IL-6 production,[3],significantly stimulated
same,IL-10 production,[4],significantly stimulated
